Reference: article PMC5289641, “Bioactivity of a modified human Glucagon-like peptide-1” (PLoS ONE, 2017)
Where two headings read alike, the source gives them in different places. Where no end group is shown, it is not given here.

Assays:
[1] = tested on: Mouse insulinoma cells (MIN6); details: 48 h, CCK-8, OD450
Experimental: Mouse insulinoma cells (MIN6) (iCell Bioscience, Inc. Shanghai, China) were cultured in a 25 cm^2 cell culture flasks and then seeded into 96-well microplates at a density of 6.0×10^4 cells per well for the cell proliferation assay. […] After 48 h of incubation, 10 μL CCK-8 solution (cell counting kit, Dojindo China Co., Ltd. Shanghai, China) was gently mixed into the culture and the culture was further incubated for 1 to 4 hours. A microplate reader (Bio-Rad, USA) was used to measure cell viability at a 450 nm wavelength (OD450). The cell viability ratio (CRV) was calculated as (A-A0)/A0 × 100% (where A was the absorbance of the treated cell culture and A0 was the OD450 value of a blank (RPMI 1640 medium only)).
Fig 3 Mouse pancreatic β cell proliferation (A), RT-qPCR analysis of gene expression (B), and insulin secretion (C). MIN6 cells were seeded into flat-bottomed 96-well microtiter plates at a density of 6.0×10^4 cells per well. […] The control was cell cultures treated with DPBS only. […] The controls were cells incubated with just DPBS in the presence of 10mM glucose. Cell culture supernatants were collected and insulin concentration determined using a mouse insulin ELISA kit (JiNingShiYe Ltd. Shanghai, China). Data shown represent the mean ±SD (n = 6). Different letters or (*) indicate significant difference at p<0.05.

pepsin = pepsin (Sus scrofa, UniProt P00791); details: peptide 1 mg/mL, pepsin 2 mg/mL, HCl solution pH 1.5~2.0, 37°C, SDS-PAGE with silver staining
pepsin, sequence (P00791 60-385): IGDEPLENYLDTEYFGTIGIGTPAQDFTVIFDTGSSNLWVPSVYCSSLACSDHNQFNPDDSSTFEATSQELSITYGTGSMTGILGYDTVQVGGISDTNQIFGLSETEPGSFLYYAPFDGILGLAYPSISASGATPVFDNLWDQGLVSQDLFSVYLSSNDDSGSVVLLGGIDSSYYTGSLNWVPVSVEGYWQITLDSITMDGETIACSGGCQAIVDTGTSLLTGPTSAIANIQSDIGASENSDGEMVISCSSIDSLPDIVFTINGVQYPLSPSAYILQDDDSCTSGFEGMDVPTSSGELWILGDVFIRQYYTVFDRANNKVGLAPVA
Experimental: (§1) Samples (20 μL) treated with either trypsin or pepsin for different lengths of time were then mixed with SDS-PAGE loading buffer (2×), heated at 100°С for 10 min, and then analyzed with SDS-PAGE. Protein bands on the gels were visualized by silver staining.
(§2) The reaction solutions were sampled at different time points and analyzed by SDS-PAGE. […] Negative control is trypsin only.

trypsin = details: peptide 10 mg/mL, trypsin 4 mg/mL, PBS pH 7.4, 37°C, SDS-PAGE with silver staining
Experimental: as §1, §2

pancreatin = details: peptide 2.5 mg/mL, pancreatin 1.0 mg/mL, PBS pH 7.4, 37°C, SDS-PAGE with silver staining

Molecule	Cell viability ratio (CRV) ([1]; 0.3 μM peptide)	Cell viability ratio (CRV) ([1]; 3 μM peptide)	Cell viability ratio (CRV) ([1]; 15 μM peptide)	Time to degradation by pepsin (pepsin)	State after 8 h incubation with trypsin (trypsin; 8 h)	State after 5 min with pancreatin (pancreatin)	State after 15 min in pancreatin (pancreatin)	Resistance to trypsin cleavage relative to native GLP-1 (trypsin)	Time resistant to trypsin cleavage (trypsin)	Resistance to pancreatin cleavage relative to native GLP-1 (pancreatin)
CC[C@H](C)[C@H](NC(=O)[C@H](Cc1ccccc1)NC(=O)[C@H](CCC(=O)O)NC(=O)[C@H](CCCCN)NC(=O)[C@H](C)NC(=O)[C@H](C)NC(=O)[C@H](CCC(N)=O)NC(=O)CNC(=O)[C@H](CCC(=O)O)NC(=O)[C@H](CC(C)C)NC(=O)[C@H](Cc1ccc(O)cc1)NC(=O)[C@H](CO)NC(=O)[C@H](CO)NC(=O)[C@@H](NC(=O)[C@H](CC(=O)O)NC(=O)[C@H](CO)NC(=O)[C@@H](NC(=O)[C@H](Cc1ccccc1)NC(=O)[C@@H](NC(=O)CNC(=O)[C@H](CCC(=O)O)NC(=O)[C@H](C)NC(=O)[C@@H](N)Cc1c[nH]cn1)[C@@H](C)O)[C@@H](C)O)C(C)C)C(=O)N[C@@H](C)C(=O)N[C@@H](Cc1c[nH]c2ccccc12)C(=O)N[C@@H](CC(C)C)C(=O)N[C@H](C(=O)N[C@@H](CCCCN)C(=O)NCC(=O)N[C@@H](CCCNC(=N)N)C(N)=O)C(C)C [GLP-1, reference compound]	15.65%	23.65%	58.56%	≤ 10 min	completely degraded	quickly degraded	completely destroyed			
HGEGTFTSDVSSYLEGQAAQEFIAWLVDGR-NH2 [mGLP-1]	10.58%	20.58%	60.26%	≤ 10 min		quickly degraded	faint mGLP-1 was still detectable	more resistant	up to 8 hours	more resistant
